The NIST ThermoML archive (doi:10.1016/j.jct.2017.11.007)
Numbers after ± are expanded uncertainties.

Experiment: mn = molality of the nth substance listed, in mol/kg
Conditions: 74.66 kPa, Liquid; for mass density: Vibrating tube method; for speed of sound: Frequency=3 MHz, Single path-length method

Cc1ccnc([N-]S(=O)(=O)c2ccc(N)cc2)n1.[Na+] + O
Conditions	mass density, 293.15 K [kg/m3]	mass density, 298.15 K [kg/m3]	mass density, 303.15 K [kg/m3]	mass density, 308.15 K [kg/m3]	speed of sound, 298.15 K [m/s]	speed of sound, 303.15 K [m/s]	speed of sound, 308.15 K [m/s]
m1 = 0.005	998.778 ± 0.11	997.615 ± 0.11	996.212 ± 0.11	994.593 ± 0.11	1497.8 ± 1.2	1510 ± 1.2	1520.6 ± 1.2
m1 = 0.008	999.118 ± 0.11	997.95 ± 0.11	996.544 ± 0.11	994.922 ± 0.11	1498.2 ± 1.2	1510.5 ± 1.2	1521.1 ± 1.2
m1 = 0.01	999.342 ± 0.11	998.172 ± 0.11	996.764 ± 0.11	995.14 ± 0.11	1498.5 ± 1.2	1510.8 ± 1.2	1521.4 ± 1.2
m1 = 0.01486	999.886 ± 0.11	998.708 ± 0.11	997.296 ± 0.11	995.663 ± 0.11	1499.3 ± 1.2	1511.6 ± 1.2	1522.1 ± 1.2
m1 = 0.02002	1000.47 ± 0.11	999.286 ± 0.11	997.863 ± 0.11	996.227 ± 0.11	1500 ± 1.2	1512.3 ± 1.2	1522.8 ± 1.2
m1 = 0.025	1001.03 ± 0.11	999.841 ± 0.11	998.416 ± 0.11	996.774 ± 0.11	1500.9 ± 1.2	1513.1 ± 1.2	1523.5 ± 1.2
m1 = 0.03001	1001.59 ± 0.11	1000.39 ± 0.11	998.961 ± 0.11	997.316 ± 0.11	1501.7 ± 1.2	1513.8 ± 1.2	1524.2 ± 1.2
m1 = 0.035	1002.15 ± 0.11	1000.95 ± 0.11	999.509 ± 0.11	997.858 ± 0.11	1502.5 ± 1.2	1514.6 ± 1.2	1524.9 ± 1.2
m1 = 0.04002	1002.71 ± 0.11	1001.5 ± 0.11	1000.06 ± 0.11	998.402 ± 0.11	1503.3 ± 1.2	1515.3 ± 1.2	1525.7 ± 1.2
m1 = 0.04499	1003.27 ± 0.11	1002.05 ± 0.11	1000.61 ± 0.11	998.941 ± 0.11	1504.1 ± 1.2	1516.1 ± 1.2	1526.3 ± 1.2
m1 = 0.05	1003.84 ± 0.11	1002.61 ± 0.11	1001.16 ± 0.11	999.494 ± 0.11	1504.8 ± 1.2	1516.8 ± 1.2	1527.1 ± 1.2
m1 = 0.05501	1004.4 ± 0.11	1003.17 ± 0.11	1001.71 ± 0.11	1000.03 ± 0.11	1505.7 ± 1.2	1517.6 ± 1.2	1527.8 ± 1.2
m1 = 0.05998	1004.96 ± 0.11	1003.73 ± 0.11	1002.26 ± 0.11	1000.58 ± 0.11	1506.5 ± 1.2	1518.3 ± 1.2	1528.4 ± 1.2
